Results as given in patent US20260055114A1, “IMIDAZO[1,2-B]PYRIDAZINE INHIBITORS OF CYCLIN-DEPENDENT KINASES” (H. LEE MOFFITT CANCER CENTER AND RESEARCH INSTITUTE, INC., priority 2022, published 2026).

Experiments:
CDK12 = CDK12 (Homo sapiens, UniProt Q9NYV4); assay: Inhibition of cyclin-dependent kinase 12 (% enzyme activity at 1 uM and IC50); type: biochemical; conditions: for remaining activity at 1 µM: 1 uM compound
MDA-MB-231 cell line = assay: Antiproliferative activity, MDA-MB-231 cell line (GI50); type: cell-based; conditions: Homo sapiens
CCNK = CCNK degradation (DC50, Dmax); type: cell-based; conditions: for Dmax (%): CCNK degradation

Chain of CDK12 (Q9NYV4 whole entry): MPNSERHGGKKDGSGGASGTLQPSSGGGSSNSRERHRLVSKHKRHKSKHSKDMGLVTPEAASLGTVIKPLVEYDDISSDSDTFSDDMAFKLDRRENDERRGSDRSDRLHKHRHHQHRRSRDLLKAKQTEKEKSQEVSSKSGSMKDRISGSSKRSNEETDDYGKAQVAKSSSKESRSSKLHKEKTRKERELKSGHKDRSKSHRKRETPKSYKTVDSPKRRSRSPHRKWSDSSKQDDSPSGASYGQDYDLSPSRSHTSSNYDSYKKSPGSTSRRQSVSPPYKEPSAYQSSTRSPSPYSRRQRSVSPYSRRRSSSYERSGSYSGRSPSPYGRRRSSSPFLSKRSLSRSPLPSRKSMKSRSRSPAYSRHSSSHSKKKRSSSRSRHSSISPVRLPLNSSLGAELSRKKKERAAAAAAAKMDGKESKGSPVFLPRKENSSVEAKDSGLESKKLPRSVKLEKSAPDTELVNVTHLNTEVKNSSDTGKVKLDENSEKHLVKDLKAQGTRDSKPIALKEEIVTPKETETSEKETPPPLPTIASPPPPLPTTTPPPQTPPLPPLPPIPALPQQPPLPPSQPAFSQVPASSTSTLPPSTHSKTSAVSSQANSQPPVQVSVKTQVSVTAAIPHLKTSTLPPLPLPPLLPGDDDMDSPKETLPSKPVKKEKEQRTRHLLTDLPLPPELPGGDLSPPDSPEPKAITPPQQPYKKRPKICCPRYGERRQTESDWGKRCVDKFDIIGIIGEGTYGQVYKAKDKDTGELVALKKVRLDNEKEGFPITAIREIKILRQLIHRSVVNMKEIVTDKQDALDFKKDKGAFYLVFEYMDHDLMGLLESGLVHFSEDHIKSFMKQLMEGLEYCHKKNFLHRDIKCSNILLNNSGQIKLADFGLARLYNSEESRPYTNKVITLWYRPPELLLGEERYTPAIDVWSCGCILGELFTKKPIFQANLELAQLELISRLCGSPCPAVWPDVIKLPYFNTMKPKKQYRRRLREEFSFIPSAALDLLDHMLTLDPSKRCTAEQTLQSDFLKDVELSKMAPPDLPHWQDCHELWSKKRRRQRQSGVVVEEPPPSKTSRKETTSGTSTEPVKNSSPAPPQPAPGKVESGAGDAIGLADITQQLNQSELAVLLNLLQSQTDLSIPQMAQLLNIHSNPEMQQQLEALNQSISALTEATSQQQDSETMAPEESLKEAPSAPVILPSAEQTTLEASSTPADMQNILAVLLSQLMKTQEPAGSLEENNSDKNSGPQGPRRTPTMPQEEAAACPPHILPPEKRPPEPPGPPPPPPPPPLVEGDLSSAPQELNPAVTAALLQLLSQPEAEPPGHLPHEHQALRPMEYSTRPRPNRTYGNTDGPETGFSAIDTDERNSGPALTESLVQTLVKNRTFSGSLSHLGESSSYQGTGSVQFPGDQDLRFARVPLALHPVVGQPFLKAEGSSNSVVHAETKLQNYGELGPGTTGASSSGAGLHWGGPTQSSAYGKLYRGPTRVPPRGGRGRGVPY
Chain of CDK12 (O75909 whole entry partner): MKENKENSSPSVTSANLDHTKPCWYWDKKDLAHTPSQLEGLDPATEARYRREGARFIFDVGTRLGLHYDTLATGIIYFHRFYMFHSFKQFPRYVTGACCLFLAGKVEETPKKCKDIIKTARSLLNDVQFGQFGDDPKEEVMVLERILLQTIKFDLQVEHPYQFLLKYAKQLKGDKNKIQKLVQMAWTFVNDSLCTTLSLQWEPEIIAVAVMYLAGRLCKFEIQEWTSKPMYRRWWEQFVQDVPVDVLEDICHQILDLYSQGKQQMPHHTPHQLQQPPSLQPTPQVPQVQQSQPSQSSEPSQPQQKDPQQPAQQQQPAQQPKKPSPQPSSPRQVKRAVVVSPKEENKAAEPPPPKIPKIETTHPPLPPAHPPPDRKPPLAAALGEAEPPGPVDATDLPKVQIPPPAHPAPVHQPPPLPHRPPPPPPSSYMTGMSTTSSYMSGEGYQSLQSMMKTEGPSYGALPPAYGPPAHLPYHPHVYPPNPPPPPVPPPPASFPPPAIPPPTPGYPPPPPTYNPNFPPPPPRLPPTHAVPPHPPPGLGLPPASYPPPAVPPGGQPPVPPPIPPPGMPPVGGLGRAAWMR

| Structure (SMILES) | IC50 (CDK12) [nM] | remaining activity at 1 µM (CDK12) [%] | GI50 (MDA-MB-231 cell line) [nM] | DC50 (CCNK) [nM] | Dmax (%) (CCNK) |
| --- | --- | --- | --- | --- | --- |
| Cc1ccnc2[nH]c(CNc3cc(N4CCOCC4)nn4c(-c5cnn(C(C)C)c5)cnc34)nc12 [Cmpd 21, 3-(1-isopropyl-1H-pyrazol-4-yl)-N-((7-methyl-3H-imidazo[4,5-b]pyridin-2-yl)methyl)-6-morpholinoimidazo[1,2-b]pyridazin-8-amine] | 722 | 34 | 10000 | 10000 |  |
| CN1CCN(c2cc(NCc3nc4cc(Cl)c(Cl)cc4[nH]3)c3ncc(-c4ccsc4)n3n2)CC1 [Cmpd 63, N-((5,6-dichloro-1H-benzo[d]imidazol-2-yl)methyl)-6-(4-methylpiperazin-1-yl)-3-(thiophen-3-yl) imidazo[1,2-b]pyridazin-8-amine] | 2010 |  | 78 | 180 | 100 |
| CN1CCN(c2cc(NCc3nc4c(F)c(F)ccc4[nH]3)c3ncc(-c4cnn(C)c4)n3n2)CC1 [Cmpd 5, N-((4,5-difluoro-1H-benzo[d]imidazol-2-yl)methyl)-3-(1-methyl-1H-pyrazol-4-yl)-6-(4-methylpiperazin-1-yl) imidazo[1,2-b]pyridazin-8-amine] | 3000 |  | 4280 | 1300 | 65 |
| CN1CCN(c2cc(NCc3nc4c(F)c(F)ccc4[nH]3)c3ncc(-c4csc(C#N)c4)n3n2)CC1 [Cmpd 82, 4-(8-(((4,5-difluoro-1H-benzo[d]imidazol-2-yl)methyl)amino)-6-(4-methylpiperazin-1-yl)imidazo[1,2-b]pyridazin-3-yl)thiophene-2-carbonitrile] | 405 | 30 | 1120 | 250 | 50 |
| CN1CCN(c2cc(NCc3nc4cccc(Cl)c4[nH]3)c3ncc(-c4cnn(C5CC5)c4)n3n2)CC1 [Cmpd 32, N-((7-chloro-1H-benzo[d]imidazol-2-yl)methyl)-3-(1-cyclopropyl-1H-pyrazol-4-yl)-6-(4-methylpiperazin-1-yl) imidazo[1,2-b]pyridazin-8-amine] | 2080 | 45 | 4430 | 1400 | 50 |
